From the METLIN SMRT retention time set (Domingo-Almenara et al. 2019) come the findings set out here.

A short description of the data set: gradient 5% acetonitrile 3 min, to 50% in 2 min, to 85% in 15 min, held 3 min, 100 µL/min. The settings on record: column: Zorbax Extend-C18 2.1 x 50 mm; eluents: water / acetonitrile, 0.1% formic acid. In outline:
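Data were gathered over 3 months by HPLC coupled to a quadrupole time-of-flight mass spectrometer, operated in positive and negative ionization mode. Mixtures of ~100 pure standards ran on a Zorbax Extend-C18 column (2.1 × 50 mm, 1.8 μm) at 100 μL/min, with water and acetonitrile each containing 0.1% formic acid and dead and dwell volumes of 40 μL and 900 μL. Retention time was read from adduct peaks picked by computer and checked manually.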
In the case of `COc1nn(C)cc1-c1nnc(SCC(=O)NCc2ccc(F)cc2)n1C`, the RP-LC retention time was 594 s.
The same measure for `O=C(NCc1ccc(Br)cc1)C1CCN(c2cnc3nccnc3c2)CC1`: 746 s.
As for `O=C(NCC1CCCO1)c1ccc(Cn2nc(N3CCN(c4ccccc4)CC3)ccc2=O)o1` (centres undefined), the RP-LC retention time was found to be 737 s.
As to `Cc1ccc(NC(=O)N2CCCN(c3ccc(=O)n(-c4ccccc4)n3)CC2)cc1`, the RP-LC retention time worked out at 820 s.
The same measure for `O=C1CCCN1CCCN1C(=O)[C@H]2CN(Cc3cccc(Cl)c3F)C[C@H]2C1=O`: 660 s; for `CC(C)(C)n1ncc2c(=O)n(NC(=O)c3cc(=O)c4ccccc4o3)cnc21`: 713 s.
In turn, `Cc1cccc(Cn2nc3c(S(=O)(=O)N4CCOCC4)cccn3c2=O)c1` returned an RP-LC retention time of 777 s.
In turn, `CCCc1ccc(S(=O)(=O)N2CCC(n3c(-c4ccoc4)nc4cccnc43)C2)cc1` (centres undefined) registered an RP-LC retention time of 1020 s.
`Cc1ccc(C2=NC3(CCN(C(=O)Cc4cccs4)CC3)ON2)cc1` registered an RP-LC retention time of 829 s.
With `CC(=O)Nc1ccc(OCCOc2ccc([N+](=O)[O-])cc2)cc1`, the RP-LC retention time came to 862 s.
Turning to `COc1ccc(N2CCN(c3ncc(S(=O)(=O)c4ccc(C)c(C)c4)c(N)n3)CC2)cc1`, the RP-LC retention time was 966 s.
Under `COc1ccc(-c2noc(CN3N=NC4C(=O)N(c5ccc(F)c(F)c5)C(=O)C43)n2)cc1` (centres undefined) stands 1130 s; under `Cn1ncc2c3ccccc3n(CC(=O)NCCCN3CCCC3)c2c1=O`, 592 s; under `Cc1ccc(C(=O)N2CCN(c3nnc4cccc(C)n34)CC2)cc1F`, 667 s.
Under `O=C(Cc1nnc2cc(-c3nc(C4CC4)no3)ccn12)N1CCOCC1` stands 642 s; under `N#CC1=C(SCC(=O)NCc2ccccc2)NC(=O)CC1c1cccc([N+](=O)[O-])c1` (centres undefined), 803 s.
The same measure for `CN(CCc1noc(COc2ccc(F)cc2)n1)C(=O)Nc1ccccc1Cl`: 962 s; for `CCc1ccccc1NC(=O)N1CCC(n2cnc3ccc(C)cc3c2=O)CC1`: 799 s.
As to `O=S(=O)(c1ccc(-c2noc(-c3cccc(Br)c3)n2)cc1)N1CCCC1`, the RP-LC retention time is 1290 s.
Under `CCn1nccc1-c1cccc(-c2noc(-c3ccc(CS(=O)(=O)c4ccccc4)cc3)n2)c1` stands 1160 s.
Take `COc1ccc2[nH]cc(CCNC(=O)CCC3CCCCC3)c2c1`: the RP-LC retention time is 874 s.
Under `CCN1c2ccccc2C(=O)NC12CCN(C(=O)NCc1ccccc1)CC2` stands 881 s.
In turn, `O=C(Nc1ccc2c(c1)OCCO2)C1CCN(c2cc(N3CCSCC3)ncn2)CC1` displayed an RP-LC retention time of 662 s.
The same measure for `COc1ccccc1N1CCN(c2cc(SCC(=O)NCc3ccc4c(c3)OCO4)ncn2)CC1`: 840 s; for `C=CCN1C(=O)COc2ccc(-c3csc(NC(=O)c4ccccc4)n3)cc21`: 982 s.
For `CC1CCN(c2cc(-n3cnc(C(=O)N4CCC(C(N)=O)CC4)c3)ncn2)CC1`, the RP-LC retention time worked out at 669 s.
Under `Cc1ccc(NC(=O)N2CCC(c3nc(C(=O)N(C)C)c(C)o3)CC2)cc1C` stands 726 s; under `CC1CCCN(CC2CCN(S(=O)(=O)CCc3ccccc3)CC2)C1` (centres undefined), 677 s.
Turning to `CC(NC(=O)CCNc1c(-c2ccc(F)cc2)nc2cnccn12)c1ccccn1` (centres undefined), the RP-LC retention time came out at 578 s.
The same measure for `CC(C)n1cnnc1CC1CN(C(=O)Nc2ccc(Cl)cc2C(F)(F)F)C1`: 693 s; for `O=C(CCc1c[nH]c2ccccc12)N1CCC(c2nc3ccccc3[nH]2)CC1`: 594 s.
As to `CC(NC(=O)C1=C2CCCN2c2ccccc2S1(=O)=O)c1ccccc1` (centres undefined), the RP-LC retention time came out at 855 s.
The molecule `Cn1cc2c3c(cccc31)CN(C(=O)c1ccc(Br)cc1)CC2` yielded an RP-LC retention time of 1030 s.
On to `CC1(C(=O)NC2CCCCCCC2)CN(S(C)(=O)=O)CC(=O)N1Cc1cccc(F)c1` (centres undefined), for which the RP-LC retention time was 956 s.
The same measure for `O=C(NCC1CCN(Cc2ccco2)CC1)C(=O)Nc1ccc(F)c(Cl)c1`: 584 s; for `Cc1ccc(-c2csc(NC(=O)CN3C(=O)COc4ccc(Cl)cc43)n2)cc1`: 1070 s; for `CCOC(=O)C1CCN(C(=O)CCc2cc3cc(C)ccc3[nH]c2=O)CC1`: 729 s.
In the case of `CCNC(=O)C1CCN(C(=O)Nc2ccc(NC(=O)Nc3ccc(CC)cc3)cc2)CC1`, the RP-LC retention time was determined as 733 s.
In turn, `COc1cccc(C(=O)NCC(=O)Nc2nc3ccccc3[nH]2)c1` returned an RP-LC retention time of 624 s.
Under `O=C1Nc2cc(C(=O)N3CCC(N4CCCCC4)CC3)ccc2N2CCCCC12` (centres undefined) stands 581 s; under `Cc1ccc2[nH]cc(CCNC(=O)CCc3nnc(C(=O)Nc4ccccc4)s3)c2c1`, 875 s.
Under `Cc1ccccc1-c1nc(-c2ccc3c(c2)oc(=O)n3C(C)C)no1` stands 1270 s; under `Cc1ccc(Nc2c(-c3ccccc3O)nc3ccccn23)cc1`, 739 s.
On to `COc1cccc2cc(C(=O)NC3CNC(=O)C3)oc12` (centres undefined), for which the RP-LC retention time was 586 s.
In turn, `Cc1ccc(S(=O)(=O)N2CC3CN(C(=O)NCc4ccco4)CC(C2)O3)cc1` registered an RP-LC retention time of 767 s.
Under `CCOc1ccc(S(=O)(=O)Nc2cc(-c3cn4ccccc4n3)ccc2C)cc1` stands 687 s; under `Cc1nc2cc(-c3noc(Cc4ccc(F)cc4)n3)ccc2o1`, 983 s; under `CCOC(=O)c1ccc(Nc2nc(C(=O)OCC)nc3ccccc23)cc1`, 896 s.
The same measure for `Cc1ccc(C2=NC3(CCN(C(=O)c4ccc(F)cc4F)CC3)ON2)cc1`: 855 s; for `CN(C)C(=O)c1cc(N(C)C)nc2ccc(F)cc12`: 575 s.
Regarding `CCc1ccc(N2CC(c3noc(-c4cnccn4)n3)CC2=O)cc1` (centres undefined), the RP-LC retention time turned out to be 760 s.
Consider `CC1CCN(Cc2nnc(-c3ccccc3)o2)CC1`, for which the RP-LC retention time came to 601 s.
Regarding `O=C(Cn1cc(S(=O)(=O)N2CCCCCC2)ccc1=O)N1CCCc2ccccc21`, the RP-LC retention time is 900 s.
Under `COc1ccc(NC(=O)N2CCCC2c2nc(-c3ccccc3OC)no2)c(C)c1` (centres undefined) stands 809 s.
Under `COc1cc(CNC(=O)C2CCCN(c3nccnc3Oc3ccccc3)C2)cc(OC)c1` (centres undefined) stands 929 s.
In turn, `O=C(Nc1ccc(OCc2cc(C(=O)NC3CC3)no2)cc1)c1ccc(Cl)cc1` came in with an RP-LC retention time of 872 s.
As to `O=C(Nc1cccc(Cl)c1F)N1CCC(N2CC(F)(F)C[C@H]2COCC2CC2)CC1`, the RP-LC retention time was 762 s.
In turn, `COc1cc(CN2CCCC2c2cc(C)on2)cc(OC)c1O` (centres undefined) registered an RP-LC retention time of 582 s.
The same measure for `Cc1cc(C(=O)Nc2nc(-c3ccc(Cl)cc3)c(C)s2)no1`: 1110 s; for `COCCNC(=O)N1CCCCC1c1nncn1Cc1ccccc1` (centres undefined): 539 s; for `O=C(Cc1ccccc1Cl)N1CCc2cc(-c3ccno3)ccc21`: 1020 s.
Under `O=S(=O)(c1cc(-c2nnc(C3CC3)o2)co1)N1CCc2ccccc2C1` stands 946 s; under `Cc1ccc(NS(=O)(=O)c2cc3c(s2)CCN(C(=O)C2CC2)C3)cc1C`, 861 s; under `Nc1ncnc2c1c(-c1ccc(Oc3ccccc3)cc1)cn2C1CCCC1`, 1030 s.
Under `Cc1ccc(-c2cc3c(N4CCCC(C(=O)NC(C)C)C4)nccn3n2)c(C)c1` (centres undefined) stands 828 s.
For the molecule `COc1ccc(NC(=O)C(C)C2CCN(C(=O)Nc3ccc(C)cc3)CC2)c(OC)c1` (centres undefined), the RP-LC retention time came to 848 s.
Under `O=C1CN(Cc2ccc(F)cc2Cl)CC2(CCCCC2)N1CC1CC1` stands 1330 s; under `CC1CCCN(c2nn(CC(=O)Nc3ccc(C(F)(F)F)cc3)c(=O)c3ccccc23)C1` (centres undefined), 1170 s; under `Cc1ccc(-n2ccc(=O)c(-c3nc(-c4ccc(Br)cc4)no3)n2)cc1`, 1030 s.
For `COCCCn1c(C)c(C)c(S(=O)(=O)c2ccccc2)c1NC(=O)C1CCCO1` (centres undefined), the RP-LC retention time worked out at 824 s.
As for `Cn1ncc2c3ccccc3n(CCCC(=O)NCc3ccco3)c2c1=O`, the RP-LC retention time turned out to be 787 s.
For the molecule `Cc1ccc(-c2cc(C(=O)N(C)Cc3ccccc3)c(C)[nH]2)cc1C`, the RP-LC retention time came to 1040 s.
In turn, `O=C(Cn1nc(C(=O)N2CCOCC2)c2ccccc21)Nc1cccc(Cl)c1` displayed an RP-LC retention time of 816 s.
The same measure for `Cc1ccc(S(=O)(=O)N2CCC3(CC2)CC(C)(O)CCO3)cc1F` (centres undefined): 846 s; for `CCn1c(C(=O)Nc2cc(C)cc(C)c2)cc2sc(Cl)cc21`: 1110 s; for `COc1ccc(NC(=O)NCCc2cn(C)c3ncccc23)cc1OC`: 612 s.
Under `COCCN1C(=O)[C@H]2CN(Cc3ccc(F)c(Br)c3)C[C@H]2C1=O` stands 680 s; under `Cc1cc(N)c2cc(NC(=O)/C=C\c3ccccc3Cl)ccc2n1`, 751 s.
`COc1ccccc1N1CCN(C(=O)CCc2c(C)n(C)c3nc(-c4ccccc4)nn3c2=O)CC1` came in with an RP-LC retention time of 761 s.
